Laboratory results from patent US9198433B2, “Substituted benzene fungicides” (E I DU PONT DE NEMOURS AND COMPANY, priority 2007, dated 2015).
Marks after values point to notes of the source that are not given here.

Key:
Type in all cases: in vivo
Septoria tritici = test: Test D: wheat leaf blotch, preventive spray on wheat seedlings, disease rating; details: 100 = 100% disease control, 0 = no control relative to controls
Method in brief: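 Preventive test: one day after run-off spraying (200 ppm, equal to 500 g/ha, unless marked 40 or 50 ppm; acetone/water plus 250 ppm Trem 014), seedlings received S. tritici spore inoculum. Disease scored after 48 h at 24 °C in saturated air and 19 further days at 20 °C.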

[1] = tested on: Puccinia recondita f. sp. tritici; test: Test B: wheat leaf rust, preventive spray on wheat seedlings, disease rating; details: 100 = 100% disease control, 0 = no control relative to controls
Method in brief: (§1)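 Preventive spray to run-off on wheat seedlings; test suspension in acetone:water 50:50 plus 250 ppm surfactant, acetone predissolution at 3% of final volume. Dose 200 ppm (≈500 g/ha) by default, 40 ppm or 50 ppm where flagged.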

Botrytis cinerea = test: Test F: tomato Botrytis, preventive spray on tomato seedlings, disease rating; details: 200 ppm, 100 = 100% disease control, 0 = no control relative to controls
Method in brief: (§2)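 Disease ratings follow a preventive run-off spray of tomato seedlings. Compounds were first dissolved in acetone (3% of volume), then suspended in 50/50 acetone/water containing 250 ppm Trem 014. Test level 200 ppm (equivalent to 500 g/ha) except where marked * for 40 ppm or ** for 50 ppm.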

[2] = tested on: Erysiphe graminis f. sp. tritici; test: Test A: wheat powdery mildew, preventive spray on wheat seedlings, disease rating; details: 200 ppm, 100 = 100% disease control, 0 = no control relative to controls
Method in brief: as §1

Alternaria solani = test: Test H: tomato early blight, preventive spray on tomato seedlings, disease rating; details: 200 ppm, 100 = 100% disease control, 0 = no control relative to controls
Method in brief: as §2

Septoria nodorum = test: Test C: wheat glume blotch, preventive spray on wheat seedlings, disease rating; details: 100 = 100% disease control, 0 = no control relative to controls
Method in brief: as §1

Compound | Percentage Disease Control, Test D (Septoria tritici; 200 ppm) | Percentage Disease Control, Test B ([1]; 200 ppm) | Percentage Disease Control, Test F (Botrytis cinerea) | Percentage Disease Control, Test A [2] | Percentage Disease Control, Test H (Alternaria solani) | Percentage Disease Control, Test C (Septoria nodorum; 200 ppm) | Percentage Disease Control, Test D (Septoria tritici; 40 ppm (*)) | Percentage Disease Control, Test B ([1]; 40 ppm (*)) | Percentage Disease Control, Test C (Septoria nodorum; 40 ppm (*))
COC(=O)NCc1cc(-c2ccnc(-c3csc(C)n3)n2)ccc1Cl [Cmpd 131] | 13% | 0% | 0% | 0% | 0% | 0% |  |  | 
COC(=O)NCc1cc(-c2ccnc(-c3ccc(C)cc3)n2)ccc1Cl [Cmpd 132] |  |  | 0% | 80% | 0% |  | 100* % | 95* % | 98* %
COC(=O)NCc1cc(-c2ccnc(-c3cccc(C)c3)n2)ccc1Cl [Cmpd 133] |  | 93% | 0% | 94% | 0% | 93% | 92* % |  | 
COC(=O)NCc1cc(-c2ccnc(-c3ccccc3)n2)ccc1Cl [Cmpd 134] | 87% | 84% | 0% | 0% | 0% |  |  |  | 96* %
COC(=O)NCc1cc(-c2ccnc(C3CC3)n2)ccc1Cl [Cmpd 137] |  | 99% | 0% | 95% | 15% |  | 97* % |  | 90* %
COC(=O)NCc1cc(-c2ccnc(C(F)(F)F)n2)ccc1Cl [Cmpd 138] | 77% | 48% | 0% | 56% | 0% | 92% |  |  | 
COC(=O)NCc1cc(-c2ccnc(OCc3ccccc3)n2)ccc1Cl [Cmpd 139] |  |  | 0% | 87% | 26% |  | 92* % | 100* % | 99* %
COC(=O)NCc1cc(-c2ccnn2-c2ccccc2)ccc1Cl [Cmpd 140] | 96% | 32% | 0% | 0% | 0% | 0% |  |  | 
COC(=O)NCc1cc(-c2cc(C(F)(F)F)nn2C)ccc1Cl [Cmpd 141] | 98% | 89% | 0% | 96% | 0% | 82% |  |  | 
COC(=O)NCc1cc(-c2cc(C(F)(F)F)nn2CCC(C)(C)C)ccc1Cl [Cmpd 142] | 92% | 55% | 0% | 85% | 16% | 0% |  |  | 
CCCn1nc(C(F)(F)F)cc1-c1ccc(Cl)c(CNC(=O)OC)c1 [Cmpd 144] | 95% | 19% | 0% | 97% | 0% | 0% |  |  | 
COC(=O)NCc1cc(-c2c[nH]nn2)ccc1Cl [Cmpd 145] | 30% | 0% | 0% | 0% | 15% | 0% |  |  | 
COC(=O)NCc1cc(-c2cn(-c3ccc(Cl)cc3)nn2)ccc1Cl [Cmpd 148] |  |  | 46% | 85% | 0% | 90% | 98* % | 90* % | 
COC(=O)NCc1cc(-c2cn(Cc3ccc(C)cc3)nn2)ccc1Cl [Cmpd 149] | 99% | 99% | 0% | 0% | 0% | 100% |  |  | 
COC(=O)NCc1cc(-c2ccn(-c3ccc(C(C)=O)cc3)n2)ccc1Cl [Cmpd 150] | 99% | 98% | 0% | 71% | 92% | 100% |  |  | 
